From US11229628B2, “TRPA1 and TRPV4 inhibitors and methods of using the same for organ-specific inflammation and itch” (Duke University, priority 2015, dated 2022)
“Also recorded” adds a separate entry of the source.

Experiments:
IL-1β secretion by 1° MK = test: IL-1β secreted by cultured keratinocytes after UVB exposure (ELISA); format: cell-based, mouse; details: 5 μM GSK205
Protocol: Before UV irradiation, culture media was replaced with PBS. The cells were then irradiated at a dose of 50 mJ/cm^2 with UVB. 24 hours later, supernatants were assayed using IL-1β ELISA (R&D Systems, Minneapolis, Minn.).
We also tested the response of down-stream UVB effector mechanisms to GSK205 treatment in vivo.

TRPV4 = biological target: T1, TRPV4 (Mus musculus, UniProt Q9EPK8); test: GSK101-evoked Ca++ transient in 1° MK (fura-2); format: cell-based; details: 5 nM GSK101; 20 μM GSK205
T1 construct: Primary mouse keratinocytes were derived from back skin of newborn mice; endogenous in cells; host or cells: primary mouse epidermal keratinocytes (1° MK), wild type
T1 sequence (Q9EPK8 whole entry): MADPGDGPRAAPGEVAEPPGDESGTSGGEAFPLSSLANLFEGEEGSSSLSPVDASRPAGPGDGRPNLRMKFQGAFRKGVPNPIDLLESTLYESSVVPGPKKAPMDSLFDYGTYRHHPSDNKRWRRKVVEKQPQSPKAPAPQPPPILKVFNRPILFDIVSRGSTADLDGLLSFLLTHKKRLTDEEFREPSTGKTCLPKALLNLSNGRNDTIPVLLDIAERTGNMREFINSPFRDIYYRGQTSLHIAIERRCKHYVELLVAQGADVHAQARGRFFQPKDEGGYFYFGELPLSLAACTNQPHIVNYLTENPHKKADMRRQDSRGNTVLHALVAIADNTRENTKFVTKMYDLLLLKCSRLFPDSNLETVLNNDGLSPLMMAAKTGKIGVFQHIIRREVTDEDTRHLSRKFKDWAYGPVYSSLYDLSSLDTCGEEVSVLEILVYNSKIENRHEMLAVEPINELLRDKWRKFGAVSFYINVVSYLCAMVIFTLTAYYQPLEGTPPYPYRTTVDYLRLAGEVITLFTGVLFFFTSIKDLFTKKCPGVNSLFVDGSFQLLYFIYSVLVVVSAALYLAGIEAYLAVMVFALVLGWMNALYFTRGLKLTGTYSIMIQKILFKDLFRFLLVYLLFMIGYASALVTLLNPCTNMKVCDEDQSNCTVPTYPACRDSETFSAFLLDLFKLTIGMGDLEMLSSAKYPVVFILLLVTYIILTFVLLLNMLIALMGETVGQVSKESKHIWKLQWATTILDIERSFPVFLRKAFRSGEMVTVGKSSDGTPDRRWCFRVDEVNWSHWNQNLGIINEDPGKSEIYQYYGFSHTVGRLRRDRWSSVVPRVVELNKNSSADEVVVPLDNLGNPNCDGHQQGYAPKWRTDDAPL
Protocol: Ca++ imaging of mouse 1° MK in response to chemical activation of TRPV4 was conducted after loading with 2 μM fura2-AM, following a ratiometric Ca2+ imaging protocol with 340/380 nm […] for dual excitation. Ratios of emissions were acquired at 0.5 Hz. ΔR/R0 was determined as the fraction of the increase of a given ratio over baseline ratio, divided by baseline ratio. For stimulation of cells with UVB, where fura-2 was not suitable because of the proximity of stimulation with 340/380 nm and 295 nm, 2 μM fluo4-AM was used instead. Ca++ imaging was carried out at 488 nm excitation, acquisition of emissions at 0.5 Hz, expressed as ΔF/F0. In the custom-built UV optical system, UV LEDs were capped with a ball lens, a transparent optical window in the shape of a hemispherical lens (FIG. 2B). The LED output optical beam focused at 15-20 mm from the lens, with a spot diameter of approximately 1.5˜2.0 mm (FIG. 2C). […] The thermal equilibration stage was set for physiological temperature. We confirmed the non-thermal nature of UVB stimulation using the customized 295 nm LED device in a dedicated experiment (FIG. 2D), thus confirming the specific modality of stimulation as UVB.
We obtained corroborating findings by chemically activating TRPV4 with GSK101, which can directly stimulate TRPV4 in WT 1° MK. […]

ET1 expression in 1° MK = test: ET1 expression by UVB-exposed 1° MK (immunocytochemistry); format: cell-based, mouse; details: 295 nm UVB-LED, 24 hours
Protocol: 1° MK were exposed to UVB using the UV optical system (295 nm LED). 24 hours later the cells were fixed and fluorescently immunolabeled for ET1. Digital images were captured and subjected to morphometry.
Mouse keratinocytes were cultured on collagen coated quartz coverslips and then stimulated from the bottom using the previously mentioned UV optical system using the 295 nm LED. 24 hours later the cells were fixed in 4% formaldehyde in PBS for 20 minutes, permeabilized with 0.1% Triton X-100 in PBS for 10 minutes, washed, then blocked in 10% normal goat serum in PBS for 45 minutes. Coverslips were incubated overnight with primary antibody mouse anti-ET1 (1:200; Abcam), washed three times in PBS and incubated with secondary antibody for 2 hours at 25° C. Coverslips were washed three times in PBS, once with double-distilled H2O. Digital images were captured using a 40× immersion lens on the BX61 Olympus upright microscope. Morphometric analysis was conducted using ImageJ freeware with tailored regions-of-interest.
We tested whether UVB causes ET1 upregulation in a TRPV4-dependent manner. Given the exquisite wave-length dependence of ET1 expression in 1° MKs, we resorted to the UVB-LED device as for Ca++ imaging (FIG. 6A and FIG. 2A-D). […] Consistent with its effects on UVB-evoked Ca++ transients, PLC-inhibitor U73122 also dampened ET1 expression. […] This leads to TRPV4-dependent Ca++ signaling, which in turn amplifies ET1 signaling in a paracrine/autocrine fashion.

[1] = test system: mouse primary keratinocytes; test: Histamine receptor-mediated Ca++ transients in mouse primary keratinocytes (fura-2); format: cell-based
Protocol: Mouse primary keratinocytes were prepared as described in Moore et al. (Proc Natl Acad Sci USA, 2013, 110, E3225-3416). Cells were pre-treated, for 10 min with 10 μM GSK205. Then 100 μM of each, histamine, 2-Pyridylethylamine (selective activator for H1R), and 4-Methylhistamine (selective activator for H4R; both H1R and H4R known to be expressed in rodent and human keratinocytes), were applied, and fura-2 loaded keratinocytes were imaged ratiometrically, as described (Moore et al. Proc Natl Acad Sci USA, 2013, 110, E3225-3416; Li, et al. Environ Health Perspect, 2011, 119, 784-9316). Shown in blue (top curve) is the average signal of ≥75 cells. Note the robust signal for histamine, and in response to selective activator of H1R, less prominent for H4R, in keeping with previous findings on expression levels of these channels in keratinocytes.

[2] = Stability on incubation in serum; format: in vitro ADME; details: 3 h and 12 h incubation in serum at 37° C.
Protocol: It was also tested whether compounds are readily broken down in systemic fluid, for which serum was used.

Structure (SMILES)	UVB-induced increase in IL-1β secretion by 1° MK (IL-1β secretion by 1° MK)	GSK101-evoked Ca++ transient (TRPV4)	ET1 immunoreactivity in UVB-exposed 1° MK (ET1 expression in 1° MK)	histamine-Ca++ response ([1]; 10 μM GSK205 10 min pre-treatment, 100 μM histamine)	Ca++ response to activation of H1R ([1]; 10 μM GSK205, 100 μM 2-Pyridylethylamine)	Ca++ response to H4R ([1]; 10 μM GSK205, 100 μM 4-Methylhistamine)	concentration of a fixed spiked amount after incubation in serum [2]
CN(CCc1ccc(Nc2nc(-c3cccnc3)cs2)cc1)Cc1ccccc1 [GSK205]	completely eliminated; also recorded: prevention of increase in IL-1β secretion	eliminated; also recorded: completely blocked	diminished; also recorded: significant down-regulation	eliminated completely	eliminated completely	significantly attenuated	–
CN(CCc1ccc(Nc2nc(-c3ccccc3)cs2)cc1)Cc1ccccc1 [Compound 16-8]	–	–	–	–	–	–	did not change
